Source: patent US4916126A, “Diacyl derivatives of 4-(trialkylbenzyl)-piperazinyl compounds” (Ciba-Geigy Corporation, priority 1988, dated 1990)
≈ marks a conversion by molar mass, not a printed value.

Legend:
[1] = system: serum lipoproteins (VLDL, LDL and HDL); assay: reduction of serum lipoproteins (VLDL, LDL and HDL) in genetically hypercholesterolaemic rats (procedure A) and normolipaemic rats (procedure B); type: in vivo; details: repeated administration of 30 mg/kg daily, oral
Experimental: In contrast, the diacyl compounds of the present invention have, if at all, only a marginal antibiotic action.
Albino rats having a body weight of from 180 to 240 g and having free access to normal rat food and drinking water are used, Sprague Dawley derivatives of the strain Tif:RAI in procedure A and animals of the Wistar strain IVa-WI in procedure B. The test compound is administered orally in a polyethylene glycol solution (average molecular weight 400) to groups of from 8 to 10 rats, in procedure A once daily at 8 a.m. for three consecutive days and twice, at 8 a.m. and 4 p.m., on the fourth day, and in the case of procedure B, daily for 5 consecutive days. In experiment A the animals are sacrificed 16 hours, and in experiment B two hours, after the final administration by bleeding from the neck under anaesthesia with ether. The animals are given no food during the 16 hours before they are sacrificed. […] The serum lipoproteins are separated using an unltracentrifuge by means of 24-hour centrifugation at 78,000 g, 78,000 g and 109,000 g in salt solutions having densities of 1.006, 1.040 and 1.21, respectively, and are analysed enzymatically for their content of cholesterol and triglycerides using the test systems supplied, for example, by Miles (Lausanne, Switzerland) and Bohringer (Mannheim, Federal Republic of Germany).

[2] = target: RNA polymerase of Escherichia coli (Escherichia coli, UniProt P0A8V2); assay: inhibition of the RNA polymerase of Escherichia coli in vitro; type: biochemical; details: not achieved even with 100 μg/ml
Sequence of RNA polymerase of Escherichia coli (P0A8V2 whole entry): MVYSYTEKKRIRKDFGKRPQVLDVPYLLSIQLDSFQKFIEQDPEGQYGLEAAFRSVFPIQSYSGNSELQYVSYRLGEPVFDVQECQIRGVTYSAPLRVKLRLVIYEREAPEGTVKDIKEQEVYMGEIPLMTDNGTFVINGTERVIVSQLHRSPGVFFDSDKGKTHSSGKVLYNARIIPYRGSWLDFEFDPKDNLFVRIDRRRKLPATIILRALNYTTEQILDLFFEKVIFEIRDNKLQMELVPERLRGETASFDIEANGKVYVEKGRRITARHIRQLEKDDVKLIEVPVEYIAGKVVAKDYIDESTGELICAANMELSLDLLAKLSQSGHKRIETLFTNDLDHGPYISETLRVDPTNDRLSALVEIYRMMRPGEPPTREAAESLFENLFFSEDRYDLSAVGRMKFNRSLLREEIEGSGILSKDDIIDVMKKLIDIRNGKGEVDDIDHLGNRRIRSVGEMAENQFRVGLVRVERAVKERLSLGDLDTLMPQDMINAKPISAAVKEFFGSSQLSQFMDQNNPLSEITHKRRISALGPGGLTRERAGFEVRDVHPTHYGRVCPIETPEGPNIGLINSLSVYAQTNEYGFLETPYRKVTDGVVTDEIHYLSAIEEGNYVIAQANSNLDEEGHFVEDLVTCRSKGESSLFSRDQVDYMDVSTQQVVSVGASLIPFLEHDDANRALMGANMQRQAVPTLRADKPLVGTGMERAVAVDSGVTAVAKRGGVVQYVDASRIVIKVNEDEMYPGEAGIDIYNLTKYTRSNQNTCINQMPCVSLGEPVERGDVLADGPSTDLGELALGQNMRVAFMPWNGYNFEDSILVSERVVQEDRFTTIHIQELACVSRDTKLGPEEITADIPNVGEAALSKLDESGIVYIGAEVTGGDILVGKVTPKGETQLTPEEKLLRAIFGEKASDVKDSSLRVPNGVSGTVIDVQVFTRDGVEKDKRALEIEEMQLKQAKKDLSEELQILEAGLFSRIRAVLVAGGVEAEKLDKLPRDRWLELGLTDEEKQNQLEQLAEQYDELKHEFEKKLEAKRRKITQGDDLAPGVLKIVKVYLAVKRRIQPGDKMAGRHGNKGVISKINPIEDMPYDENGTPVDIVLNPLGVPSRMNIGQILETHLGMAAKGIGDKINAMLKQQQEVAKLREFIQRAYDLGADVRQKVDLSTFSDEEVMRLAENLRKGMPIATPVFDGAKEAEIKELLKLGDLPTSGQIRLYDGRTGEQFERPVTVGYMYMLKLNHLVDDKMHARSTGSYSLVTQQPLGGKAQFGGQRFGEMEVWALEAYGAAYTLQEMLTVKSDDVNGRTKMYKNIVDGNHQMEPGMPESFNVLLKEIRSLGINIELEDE
Sequence of RNA polymerase of Escherichia coli (P0A8T7 whole entry partner): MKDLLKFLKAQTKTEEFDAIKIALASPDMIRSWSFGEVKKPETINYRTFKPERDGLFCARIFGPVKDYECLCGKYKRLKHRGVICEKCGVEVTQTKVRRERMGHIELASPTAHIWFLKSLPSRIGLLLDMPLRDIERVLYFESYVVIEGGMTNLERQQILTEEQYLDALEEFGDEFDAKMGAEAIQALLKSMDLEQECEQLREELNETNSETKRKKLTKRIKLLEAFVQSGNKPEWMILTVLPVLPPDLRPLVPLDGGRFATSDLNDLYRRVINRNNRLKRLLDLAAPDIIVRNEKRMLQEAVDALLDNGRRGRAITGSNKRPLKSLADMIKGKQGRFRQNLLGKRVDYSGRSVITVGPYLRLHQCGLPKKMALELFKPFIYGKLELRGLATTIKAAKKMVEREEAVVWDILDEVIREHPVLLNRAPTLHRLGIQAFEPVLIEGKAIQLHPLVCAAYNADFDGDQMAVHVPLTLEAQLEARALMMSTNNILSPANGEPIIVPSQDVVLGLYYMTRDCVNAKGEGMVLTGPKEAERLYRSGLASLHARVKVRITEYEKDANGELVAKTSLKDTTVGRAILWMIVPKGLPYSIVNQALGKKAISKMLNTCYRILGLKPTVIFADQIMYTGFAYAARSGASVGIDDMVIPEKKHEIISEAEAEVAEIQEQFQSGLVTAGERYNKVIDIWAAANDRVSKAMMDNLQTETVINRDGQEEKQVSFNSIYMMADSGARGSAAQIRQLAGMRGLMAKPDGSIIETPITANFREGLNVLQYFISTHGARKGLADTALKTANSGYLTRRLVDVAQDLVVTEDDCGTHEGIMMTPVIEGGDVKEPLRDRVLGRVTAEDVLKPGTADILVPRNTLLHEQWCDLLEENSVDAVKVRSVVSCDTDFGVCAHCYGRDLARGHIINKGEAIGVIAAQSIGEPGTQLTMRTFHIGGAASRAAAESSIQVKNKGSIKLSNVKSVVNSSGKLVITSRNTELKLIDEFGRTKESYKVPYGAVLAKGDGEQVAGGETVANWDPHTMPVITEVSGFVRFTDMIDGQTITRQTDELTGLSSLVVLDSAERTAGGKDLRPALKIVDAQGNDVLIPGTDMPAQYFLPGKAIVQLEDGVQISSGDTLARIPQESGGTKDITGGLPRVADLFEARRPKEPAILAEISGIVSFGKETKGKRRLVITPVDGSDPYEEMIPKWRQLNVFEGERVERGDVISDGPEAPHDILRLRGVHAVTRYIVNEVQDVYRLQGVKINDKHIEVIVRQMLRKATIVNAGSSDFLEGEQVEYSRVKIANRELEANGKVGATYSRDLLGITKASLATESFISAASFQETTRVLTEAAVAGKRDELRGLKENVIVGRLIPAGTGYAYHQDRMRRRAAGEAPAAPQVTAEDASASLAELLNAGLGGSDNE
Sequence of RNA polymerase of Escherichia coli (P0A7Z4 whole entry partner): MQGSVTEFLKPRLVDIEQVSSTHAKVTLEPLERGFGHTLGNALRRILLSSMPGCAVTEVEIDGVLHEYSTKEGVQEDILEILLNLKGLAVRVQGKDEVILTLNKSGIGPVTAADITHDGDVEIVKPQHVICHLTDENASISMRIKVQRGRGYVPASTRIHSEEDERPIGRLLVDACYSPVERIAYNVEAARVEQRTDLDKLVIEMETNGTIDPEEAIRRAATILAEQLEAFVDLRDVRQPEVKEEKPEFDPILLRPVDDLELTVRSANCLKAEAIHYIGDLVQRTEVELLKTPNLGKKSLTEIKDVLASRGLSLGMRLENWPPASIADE
Sequence of RNA polymerase of Escherichia coli (P0A800 2-91 partner limits assumed): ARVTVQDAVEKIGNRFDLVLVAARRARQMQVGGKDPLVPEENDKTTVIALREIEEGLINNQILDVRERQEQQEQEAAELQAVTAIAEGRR
Text: The antibiotic action is ascertained, for example, on the one hand in vitro by determining the mean effective concentration EC50 for the inhibition of the RNA polymerase of Escherichia coli and by determining the minimum inhibitory concentration MIC in a conventional plate test, and on the other hand in vivo, using infected mice and rats, by determining the ED50 (effective dose that ensures the survival of 50% of the experimental animals). There are used as micro-organisms for the present purpose especially Mycobacterium tuberculosis TB H37 Rv and Staphylococcus aureus. In the case of compounds having a lipid-reducing indication, an antibiotic activity is regarded as disadvantageous since it can result in the formation of strains of micro-organisms that are resistant to antibiotics, especially when the compounds are administered over a prolonged period.

Staphylococcus aureus [3] = assay: minimum inhibitory concentration in a conventional plate test; type: cell-based; details: read-out: MIC for various pathogenic strains of Staphylococcus aureus
Staphylococcus aureus [4] = assay: in vivo antibiotic action in mice infected with Staphylococcus aureus; details: single dose of 200 mg/kg
[5] = system: Mycobacterium tuberculosis TB H37 Rv and Staphylococcus aureus; assay: antibiotic action, in vitro and in vivo tests as a whole

SMILES: COC1C=COC2(C)Oc3c(C)c(OC(=O)C(C)(C)C)c4c(c3C2=O)C(=O)C(N2CCN(Cc3c(C)cc(C)cc3C)CC2)=C(C4=O)N(C(=O)C(C)(C)C)C(=O)C(C)=CC=CC(C)C(O)C(C)C(O)C(C)C(OC(C)=O)C1C (stereo not drawn) [8-O,N-dipivaloyl-3-[4-(2,4,6-trimethylbenzyl)-1-piperazinyl]-rifamycin S]
- reduction in the "LDL fraction" [1]: 50-70%
- EC50 [2]: > 92.6 µM
- MIC (Staphylococcus aureus [3]): ~64 µg/mL (≈ 59.2 µM)
- antibiotic activity in vivo (Staphylococcus aureus [4]): antibiotically inactive
- antibiotic activity ([5]; overall statement): practically no antibiotic activity
- EC50 and MIC values relative to concentrations normally necessary for a corresponding effect ([5]; refers to RNA polymerase EC50 and Staphylococcus aureus MIC): approximately 1000 times
